Results from patent US7842488B2, “Polynucleotides encoding a human 3-phosphoinositide- dependent protein kinase” (Medical Research Council, priority 1997, dated 2010).

T1: GST-PDK1 (Homo sapiens, UniProt O15530)
T1 construct: Residues 52-556 of PDK1 were expressed in human embryonic kidney 293 cells; made in house; host or cells: human embryonic kidney 293 cells (pEBG2T)
T1 sequence (O15530 52-556): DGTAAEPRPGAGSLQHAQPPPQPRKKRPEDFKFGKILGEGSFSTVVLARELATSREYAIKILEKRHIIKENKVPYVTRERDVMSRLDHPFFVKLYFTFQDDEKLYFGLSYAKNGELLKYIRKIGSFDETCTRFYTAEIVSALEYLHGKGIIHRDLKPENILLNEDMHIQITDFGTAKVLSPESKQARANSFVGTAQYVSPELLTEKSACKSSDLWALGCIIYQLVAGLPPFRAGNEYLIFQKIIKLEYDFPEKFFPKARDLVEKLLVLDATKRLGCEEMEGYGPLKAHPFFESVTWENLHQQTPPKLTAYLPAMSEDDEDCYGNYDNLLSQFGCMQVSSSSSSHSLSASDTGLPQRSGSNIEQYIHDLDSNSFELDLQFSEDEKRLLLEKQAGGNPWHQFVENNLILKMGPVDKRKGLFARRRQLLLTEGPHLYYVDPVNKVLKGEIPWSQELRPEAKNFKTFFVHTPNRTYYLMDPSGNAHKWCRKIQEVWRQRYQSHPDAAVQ

B1: Myc-D223A-PDK1: catalytically inactive mutant of PDK1, Myc-tagged (protein)
chain: MARTTSQLYDAVPIQSSVVLCSCPSPSMVRTQTESSTPPGIPGGSRQGPAMDGTAAEPRPGAGSLQHAQPPPQPRKKRPEDFKFGKILGEGSFSTVVLARELATSREYAIKILEKRHIIKENKVPYVTRERDVMSRLDHPFFVKLYFTFQDDEKLYFGLSYAKNGELLKYIRKIGSFDETCTRFYTAEIVSALEYLHGKGIIHRDLKPENILLNEDMHIQITAFGTAKVLSPESKQARANSFVGTAQYVSPELLTEKSACKSSDLWALGCIIYQLVAGLPPFRAGNEYLIFQKIIKLEYDFPEKFFPKARDLVEKLLVLDATKRLGCEEMEGYGPLKAHPFFESVTWENLHQQTPPKLTAYLPAMSEDDEDCYGNYDNLLSQFGCMQVSSSSSSHSLSASDTGLPQRSGSNIEQYIHDLDSNSFELDLQFSEDEKRLLLEKQAGGNPWHQFVENNLILKMGPVDKRKGLFARRRQLLLTEGPHLYYVDPVNKVLKGEIPWSQELRPEAKNFKTFFVHTPNRTYYLMDPSGNAHKWCRKIQEVWRQRYQSHPDAAVQ
modifications: left off: small tags and cut ends

Experiments:
GST-PDK1 = molecular target: T1, GST-PDK1; assay: GST-PDK1 assay: activation and phosphorylation of GST-PKBα; format: biochemical; details: lipid 10 μM in PtdCho/PtdSer vesicles
Procedure: (§1) FIG. 12. […] In panels A and C, the assays were terminated by making the incubations 1% (by vol) in TRITON X-100™ (see Ref 21), and the increase in specific activity of GST-PKBα was determined. In panels B and D, the reactions were terminated by making the solutions 1% in SDS, the samples were subjected to SDS/polyacrylamide gel electrophoresis, and the phosphorylation was assessed by autoradiography of the Coomassie blue-stained band corresponding to GST-PKBα.
(§2) One unit of PDK1 activity was defined as that amount required to increase the basal activity of GST-PKBα by 1 unit of activity in one min.

GST-DSTPK61 = molecular target: T2, GST-DSTPK61 (Drosophila melanogaster, UniProt Q9W0V1); assay: GST-DSTPK61 assay: activation and phosphorylation of GST-PKBα; format: biochemical; details: lipid 10 μM in PtdCho/PtdSer vesicles
T2 construct: residues 1-752 of DSTPK61 in E. coli as fusion proteins; made in house; host or cells: E. coli (pGEX-3X)
T2 sequence (Q9W0V1 85-836 Q200H/Q201E/Q317A/G443R): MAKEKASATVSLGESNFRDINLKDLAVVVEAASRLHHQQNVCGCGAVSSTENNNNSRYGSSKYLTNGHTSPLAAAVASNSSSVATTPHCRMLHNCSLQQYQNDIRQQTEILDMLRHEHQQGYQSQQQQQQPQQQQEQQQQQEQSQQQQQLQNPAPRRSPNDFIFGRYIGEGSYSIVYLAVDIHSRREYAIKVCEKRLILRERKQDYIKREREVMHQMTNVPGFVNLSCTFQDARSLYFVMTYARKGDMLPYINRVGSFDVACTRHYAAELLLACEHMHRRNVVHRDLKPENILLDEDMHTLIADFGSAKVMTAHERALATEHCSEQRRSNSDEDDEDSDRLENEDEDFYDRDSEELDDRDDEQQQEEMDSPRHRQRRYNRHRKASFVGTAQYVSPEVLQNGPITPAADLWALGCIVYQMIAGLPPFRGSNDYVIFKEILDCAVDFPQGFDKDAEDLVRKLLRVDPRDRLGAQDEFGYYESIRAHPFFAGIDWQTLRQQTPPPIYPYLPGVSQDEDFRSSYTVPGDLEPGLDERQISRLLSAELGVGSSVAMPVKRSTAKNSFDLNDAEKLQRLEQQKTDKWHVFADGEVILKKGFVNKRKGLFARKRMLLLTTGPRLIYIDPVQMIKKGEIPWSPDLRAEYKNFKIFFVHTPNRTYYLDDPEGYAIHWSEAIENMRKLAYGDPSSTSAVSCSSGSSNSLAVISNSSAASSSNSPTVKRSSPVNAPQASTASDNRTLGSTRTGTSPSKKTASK
Procedure: as §1, §2

PDK1 [1] = assay: PDK1 assay: activation of GST-PKBα by purified PDK1 with phospholipid vesicles; format: biochemical, rabbit; details: lipid 10 μM in vesicles of 100 μM PtdCho, 100 μM PtdSer, 30 min at 30° C.
Procedure: Assay of PDK1. The assay was carried out in two stages; in the first, GST-PKBα was incubated with PDK1 in the presence of MgATP and phospholipid vesicles to permit activation of GST-PKBα.
After 10 min at 30° C., the reactions were terminated by spotting the reaction mixture on to p81 phosphocellulose paper. The papers were washed in phosphoric acid and analysed as described previously. […] The basal GST-PKBα activity is the activity measured in the absence of PDK1.

PDK1 [2] = assay: Phosphorylation of GST-PKBα by PDK1 with [γ32P]ATP; format: biochemical, rabbit; details: lipid 10 μM in PtdCho/PtdSer vesicles
Procedure: Solutions were stored at 4° C. at concentrations 10-fold higher than those required in the assay and used within 2-4 days.
Phosphorylation of GST-PKB ? by PDK1. The incubations were identical to the Stage 1 described above except that [γ^32P] ATP (200-400 cpm/pmol) was used instead of unlabelled ATP. The reactions were terminated by making the solution 1% (by mass) in SDS. […] The Coomassie blue-staining bands corresponding to GST-PKBα were excised and the ^32P-radioactivity associated with each band was quantified.

HA-PKBα = HA-PKBα activity in transfected 293 cells; format: cell-based, human; details: 293 cells
Procedure: FIG. 14. PKBα is activated by cotransfection with PDK1 in 293 cells. (A) 293 cells were transiently transfected with DNA constructs expressing either HA-PKBα or both HA-PKBα and Myc-PDK1. The cells were then stimulated for 10 min with or without 50 ng/ml IGF1, the HA-PKBα immunoprecipitated from the lysates and assayed. The results are expressed relative to the specific activity of wild type HA-PKBα in unstimulated 293 cells ([…]). No PKBα activity was detected in mock transfections in which the cells were transfected with PCMV5 vector alone (data not shown). (B) 6 μg of protein from each lysate was electrophoresed on a 10% SDS/polyacrylamide gel and immunoblotted using either a monoclonal HA-antibody to detect HA-PKBα or a monoclonal Myc-antibody to detect Myc-PDK1. The molecular mass markers are glycogen phosphorylase (97 kDa), bovine serum albumin (67 kDa) and ovalbumin (43 kDa).
Transfection of 293 cells with HA-tagged PBKα and Myc-PDK1. Human embryonic kidney 293 cells were cultured on 10 cm diameter dishes and transfected with 2 μg/ml pCMV5 DNA constructs encoding for HA-PKBα or HA-PKBα plus Myc-PDK1 [20]. After 24 h the cells were deprived of serum for a further 16 h and then stimulated for 10 min with either […] IGF1 or Buffer. The cells were lysed in 1.0 ml of ice-cold Buffer A, the lysate centrifuged at 4° C. for 10 min at 13,000×g and HA-PKBα immunoprecipitated from aliquots of the supernatant (10 μg protein) and assayed for PKBα with the peptide RPRAATF (SEQ ID NO: 9) as described previously.

Molecule	activation and phosphorylation of GST-PKBα by GST-PDK1 (in words) (GST-PDK1)	activation and phosphorylation of GST-PKBα by GST-DSTPK61 (in words) (GST-DSTPK61)	activation of PDK1 (in words) (PDK1 [1])	activation of PDK1 (in words) (PDK1 [1]; listed as PtdIns(3)P)	activation of PDK1 (in words) (PDK1 [1]; listed as lipid 11)	phosphorylation of GST-PKBα by PDK1 (in words) (PDK1 [2])	activation of HA-PKBα on cotransfection (in words) (HA-PKBα)
CCCCCCCCCCCCCCCC(=O)OC[C@H](COP(=O)(O)OC1C(O)C(O)C(O)C(OP(=O)(O)O)C1O)OC(=O)CCCCCCCCCCCCCCC (stereo partly shown) [Lipid 11, sn-1,2 di-palmitoyl PtdIns-3P]	no activation or phosphorylation	no activation or phosphorylation	no significant activation	did not activate PDK1 at all	did not activate PDK1	did not activate PDK1 or induce the phosphorylation	
B1							not activated significantly
